SMILES strings stand for the structures. “And” between values parts separate entries of the source, which are not always exact repeats. Identical values can stand only once.

By IC50 is commonly meant the concentration that gives 50% inhibition.

Chain of Nonstructural protein 3 (A0A024AXB9 whole entry): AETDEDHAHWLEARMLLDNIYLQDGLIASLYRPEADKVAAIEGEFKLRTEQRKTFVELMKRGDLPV

This assay has as its target Nonstructural protein 3 (Zika virus, UniProt A0A024AXB9). Description: Functional biochemical assay to identify treatments for viral infectious disease that targets Zika NS2B-NS3 protease. Utilizing a direct enzyme activity measurement method, reading the fluorescence intensity is used to characterize the relative potency of inhibitors as IC50. On the set-up: species or system PRVABC59.
Take `CCn1nc(C)c(CN(C)Cc2ccc3c(c2)CCNCC3)c1C`: the IC50 is more than 99.5 µM.
Molecule `CC[C@@H](C)c1nc(C)cc(N2CCC(n3ncc(N)c3C(F)(F)F)CC2)n1` yielded an IC50 of more than 99.5 µM.
For `CCc1cc(F)ccc1CC(=O)N1CCCc2cc(CCN)ccc21` the value was more than 99.5 µM.
The same measure for `Cc1ccc([C@@H](NC(=O)OCc2ccccc2)C(=O)Nc2cccc(CN)c2)cc1C(F)(F)F`: 48.7 µM; for `NC(=O)c1cccnc1N1CCCN(c2nc(-c3cc(Cl)cc(Cl)c3)no2)CC1`: more than 99.5 µM; for `Cc1cc(C)c([C@@H](NC(=O)OCc2ccccc2)C(=O)Nc2cccc(CN)c2)c(C)c1`: more than 99.5 µM.
For `Cn1cc(C(=O)N[C@@H](C(=O)Nc2cccc(CN)c2)c2ccc(OCc3ccccc3)cc2)cn1` the value was more than 99.5 µM; for `CCc1cc(COc2ccc(S(=O)(=O)Nc3ccc(Cl)cc3C(=O)O)cc2)no1`, more than 99.5 µM; for `O=Cc1ccc(F)c(C(=O)N2CCN(C3=NCCCN3)CC2)c1`, more than 99.5 µM.
`CCn1cnnc1COc1ccc(S(=O)(=O)Nc2ccc(Cl)cc2C(=O)O)cc1` gave a half-maximal inhibitory concentration (IC50) of more than 99.5 µM.
In turn, `Cc1ccc(F)c2c1CCN(Cc1ccn(C3CNC3)c1)C2` registered an IC50 of more than 99.5 µM.
The same measure for `COc1ccc(CNC(=O)[C@@H](NC(=O)OCc2ccccc2)c2ccc(OCc3ccccc3)cc2)cn1`: more than 99.5 µM.
In turn, `CC(C)n1cc(CNC(=O)[C@@H](NC(=O)OCc2ccccc2)c2ccc(OCc3ccccc3)cc2)cn1` came in with an IC50 of more than 99.5 µM.
`CC(C)(C)c1cc(N2CCN(c3cccc4[nH]ncc34)CC2)nc(C(=O)O)n1` had an IC50 of more than 99.5 µM.
For `Cc1ocnc1COc1ccc(S(=O)(=O)Nc2ccc(Cl)cc2C(=O)O)cc1` the value was more than 99.5 µM.
Molecule `O=C(N[C@@H](C(=O)NCc1cn[nH]c1)c1ccc(OCc2ccccc2)cc1)OCc1ccccc1` showed an IC50 of more than 99.5 µM.
The same measure for `COC(=O)[C@@H](C)NC(=O)c1cc(Cl)ccc1NS(=O)(=O)c1ccc(Oc2ccccc2Cl)cc1`: more than 99.5 µM.
The same measure for `O=C(Nc1cccnc1)c1cc(Cl)ccc1NS(=O)(=O)c1ccc(Oc2ccccc2Cl)cc1`: more than 99.5 µM; for `Cc1cccnc1COc1ccc(S(=O)(=O)Nc2ccc(Cl)cc2C(=O)O)cc1`: more than 99.5 µM.
For `O=C(N[C@@H](C(=O)NCc1cnccn1)c1ccc(OCc2ccccc2)cc1)OCc1ccccc1`, the IC50 was more than 99.5 µM.
In turn, `N#Cc1c(C(F)F)cccc1N1CCC(n2ncc(N)c2C(F)(F)F)CC1` had an IC50 of more than 99.5 µM.
With `O=C(N[C@@H](C(=O)Nc1ccncc1)c1ccc(OCc2ccccc2)cc1)OCc1ccccc1`, the IC50 is more than 99.5 µM.
Molecule `O=C(O)c1cc(Cl)ccc1NS(=O)(=O)c1ccc(OCc2ccccn2)cc1` had an IC50 of more than 99.5 µM.
For `CC(C)(C)OC(=O)N1C[C@@H](O)[C@H](c2c[nH]c3ccccc23)C1`, the IC50 was more than 99.5 µM.
The same measure for `O=C(O)Cn1ccnc(N2CC[C@@H](CO)C2)c1=O`: more than 99.5 µM.
As for `Cn1c(COc2ccc(S(=O)(=O)Nc3ccc(Cl)cc3C(=O)O)cc2)nnc1C1CC1`, the IC50 was more than 99.5 µM.
The same measure for `N[C@H]1CC[C@H](NC(=O)[C@@H](NC(=O)OCc2ccccc2)c2ccc(OCc3ccccc3)cc2)CC1`: more than 99.5 µM; for `NCc1ccnc(CNC(=O)[C@@H](NC(=O)OCc2ccccc2)c2ccc(OCc3ccccc3)cc2)c1`: 93.7 µM.
For `CN(C)Cc1ccccc1CNC(=O)[C@@H](NC(=O)OCc1ccccc1)c1ccc(OCc2ccccc2)cc1` the value was more than 99.5 µM; for `NCc1cccc(NC(=O)[C@@H](NC(=O)OCc2ccccc2)c2ccc(C(F)(F)F)cc2)c1`, 79.2 µM; for `O=C(N[C@H](C(=O)NCc1ccc(F)cc1)c1ccc(OCc2ccccc2)cc1)OCc1ccccc1`, more than 99.5 µM.
In the case of `CN1CCN(Cc2ccccc2CNC(=O)[C@@H](NC(=O)OCc2ccccc2)c2ccc(OCc3ccccc3)cc2)CC1`, the IC50 was more than 99.5 µM.
For `Cc1ccc2c(c1)CN(C(=O)c1ccc(C3(CN)CC3)cc1)C(C)(C)C2` the value was more than 99.5 µM.
The same measure for `Cc1ncccc1-c1ccc([C@@H](NC(=O)OCc2ccccc2)C(=O)Nc2cccc(CN)c2)cc1`: 98.1 µM; for `O=C(N[C@@H](C(=O)Nc1ccc2c(n1)CNC2)c1ccc(OCc2ccccc2)cc1)OCc1ccccc1`: more than 99.5 µM.
For `NCc1cccc(CNC(=O)[C@@H](NC(=O)OCc2ccccc2)c2ccc(OCc3ccccc3)cc2)n1` the value was 65.6 µM; for `O=C(O)c1cc(Cl)cc(F)c1NS(=O)(=O)c1ccc(Oc2ccccc2Cl)cc1`, 67 µM.
As for `CCOCCNC(=O)c1cc(Cl)ccc1NS(=O)(=O)c1ccc(Oc2ccccc2Cl)cc1`, the IC50 was 90.4 µM and > 99.5 µM.
The same measure for `CS(=O)(=O)c1cccc(CNC(=O)[C@@H](NC(=O)OCc2ccccc2)c2ccc(OCc3ccccc3)cc2)c1`: more than 99.5 µM; for `O=C(O)c1cc(Cl)ccc1NS(=O)(=O)c1ccc(OCc2cccnn2)cc1`: more than 99.5 µM; for `NCCc1ccc(CNC(=O)[C@@H](NC(=O)OCc2ccccc2)c2ccc(OCc3ccccc3)cc2)cc1`: 16.3 µM and 13.9 µM.
For `Cn1c(C(=O)N2CCCc3ccc(C(F)F)cc32)cc2c1CCNC2` the value was more than 99.5 µM.
`NCCCc1ccc(C(=O)N2CC(c3cccc(Br)c3)C2)cc1` came in with an IC50 of more than 99.5 µM.
For `N[C@H]1CC[C@H](CNC(=O)[C@@H](NC(=O)OCc2ccccc2)c2ccc(OCc3ccccc3)cc2)CC1` the value was more than 99.5 µM; for `Cc1ccc(CNC(=O)[C@@H](NC(=O)OCc2ccccc2)c2ccc(OCc3ccccc3)cc2)cn1`, more than 99.5 µM; for `CN(C(=O)c1ccc2c(c1)[C@H](CN)CCC2)C1CCN(CC(F)F)CC1`, more than 99.5 µM.
For `NCc1cccc(NC(=O)[C@@H](NC(=O)c2cccnc2)c2ccc(OCc3ccccc3)cc2)c1` the value was more than 99.5 µM; for `Cc1cc(C=O)c(O)c(C(=O)N2CC[C@H](CN(C)C)C2)c1`, more than 99.5 µM; for `C[C@@H](Oc1ccc(S(=O)(=O)Nc2ccc(Cl)cc2C(=O)O)cc1)c1ccccc1F`, 25.1 µM.
For `CC(C)CNC(=O)c1cc(Cl)ccc1C=Cc1ccc(Oc2ccccc2Cl)cc1` the value was more than 99.5 µM; for `Cc1n[nH]c2cc(C(=O)N3CCC(C)(NC(=O)[C@H]4C[C@H](N(C)C)C4)CC3)ccc12`, more than 99.5 µM; for `NCc1ccccc1C1CCN(C(=O)[C@@]23CNC[C@]2(C(F)(F)F)C3)CC1`, more than 99.5 µM.
As for `CN1CCC(c2nc(C(F)(F)F)n3c2CN(c2cccc(C(N)=O)n2)CC3)CC1`, the IC50 is more than 99.5 µM.
In turn, `CCn1c(=O)c(N2C[C@@H]3[C@H](C2)[C@H]3C(=O)OC)nc2ccccc21` showed a concentration for half-maximal inhibition (IC50) of more than 99.5 µM.
For `O=C(c1cc(Cl)ccc1NS(=O)(=O)c1ccc(Oc2ccccc2Cl)cc1)N1CCNCC1` the value was more than 99.5 µM; for `O=C(N[C@@H](C(=O)NCc1ccc(CN2CCCC2)cc1)c1ccc(OCc2ccccc2)cc1)OCc1ccccc1`, more than 99.5 µM; for `O=C(N[C@H](C(=O)NCc1ccccc1CO)c1ccc(OCc2ccccc2)cc1)OCc1ccccc1`, more than 99.5 µM.
The same measure for `O=C(N[C@@H](C(=O)NCc1cccc(CN2CCCCC2)c1)c1ccc(OCc2ccccc2)cc1)OCc1ccccc1`: more than 99.5 µM.
For `NS(=O)(=O)c1cc(F)c(Cl)cc1N1CCN(c2ccnc(O)c2)CC1` the value was more than 99.5 µM; for `NCc1ccccc1C1CCN(C(=O)[C@H]2CCN3CC[C@H]2C3)CC1`, more than 99.5 µM; for `NCc1cccc(NC(=O)[C@H]2c3ccc(Br)cc3OCCN2C(=O)OCc2ccccc2)c1`, more than 99.5 µM.
For the molecule `NC[C@H]1CC[C@@H](CNC(=O)[C@@H](NC(=O)OCc2ccccc2)c2ccc(OCc3ccccc3)cc2)CC1`, half-maximal inhibition (IC50) was put at 58.2 µM. This counts as double-digit micromolar.
In turn, `Cc1ccc([C@@H](NC(=O)OCc2ccccc2)C(=O)Nc2cccc(CN)c2)cc1C` yielded an IC50 of more than 99.5 µM.
The same measure for `CS(=O)(=O)NCc1cccc(CNC(=O)[C@@H](NC(=O)OCc2ccccc2)c2ccc(OCc3ccccc3)cc2)c1`: more than 99.5 µM; for `C[C@@H](O)c1cccc(N2CCC(c3nc(N)ncc3F)CC2)n1`: more than 99.5 µM.
Turning to `CN(C)C(=O)[C@@H](NC(=O)OCc1ccccc1)c1ccc(OCc2ccccc2)cc1`, the IC50 was more than 99.5 µM.
The same measure for `O=C(O)c1cc(Cl)ccc1NS(=O)(=O)c1ccc(OCc2cccnc2)cc1`: more than 99.5 µM; for `CN(C)CCc1ccc(CNC(=O)[C@@H](NC(=O)OCc2ccccc2)c2ccc(OCc3ccccc3)cc2)cc1`: 54.6 µM.
For `O=C(N[C@H](C(=O)NCc1cccc(CO)n1)c1ccc(OCc2ccccc2)cc1)OCc1ccccc1` the value was more than 99.5 µM; for `NCc1cccc(NC(=O)[C@@H](NC(=O)OCc2ccccc2)c2ccc(OCc3ccncc3)cc2)c1`, 90 µM; for `O=C(N[C@H](C(=O)NCc1cccc(CO)c1)c1ccc(OCc2ccccc2)cc1)OCc1ccccc1`, more than 99.5 µM.
For `C[C@@H](NC(=O)C1CCN(c2cccc(C(N)=O)n2)CC1)[C@H]1CCCNC1` the value was more than 99.5 µM; for `C[C@@H](NC(=O)c1cc(Cl)ccc1NS(=O)(=O)c1ccc(Oc2ccccc2Cl)cc1)C(=O)O`, more than 99.5 µM; for `Cc1cc(CNC(=O)[C@@H](NC(=O)OCc2ccccc2)c2ccc(OCc3ccccc3)cc2)cc(C)n1`, more than 99.5 µM.
`CCN(CC(=O)NC)C(=O)c1cc(Cl)ccc1NS(=O)(=O)c1ccc(Oc2ccccc2Cl)cc1`: the half-inhibitory concentration (IC50) was more than 99.5 µM.
The same measure for `NCc1ccc2c(c1)CCC[C@H]2NCc1cc(Cl)cc2c1OCC2`: 61.4 µM; for `O=C(N[C@@H](C(=O)Nc1ccccn1)c1ccc(OCc2ccccc2)cc1)OCc1ccccc1`: more than 99.5 µM; for `NCc1cccc(NC(=O)[C@H]2c3ccc(Br)cc3CCN2C(=O)OCc2ccccc2)c1`: 53.8 µM.
For `CN1CCN(Cc2cccc(CNC(=O)[C@@H](NC(=O)OCc3ccccc3)c3ccc(OCc4ccccc4)cc3)c2)CC1` the value was more than 99.5 µM; for `CCc1ccc([C@@H](NC(=O)OCc2ccccc2)C(=O)Nc2cccc(CN)c2)cc1`, more than 99.5 µM.
The same measure for `NCc1cccc(NC(=O)[C@@H](NC(=O)OCc2ccccc2)c2ccc(-c3cccc4c3CCO4)cc2)c1`: 14 µM.
In turn, `Nc1ccc(CNC(=O)[C@@H](NC(=O)OCc2ccccc2)c2ccc(OCc3ccccc3)cc2)nc1` came in with an IC50 of more than 99.5 µM.
Regarding `NCc1cccc(NC(=O)[C@@H](NC(=O)OCc2ccccc2)c2ccc(-c3cccc(F)c3)cc2)c1`, the concentration for half-maximal inhibition (IC50) was 7.19 µM and 6.8 µM.

For the origin of these results see ChEMBL document CHEMBL5604062, “ASAP - ZIKV NS2B-NS3 protease fluorescence dose response” (2024).
